Experimental data as given in patent US20230148450A9, “BICYCLIC HETEROARYL COMPOUNDS AND USES THEREOF” (Revolution Medicines, Inc., priority 2019, published 2023).

Molecular target: T1, SOS1-mediated exchange of KRAS-4B:GDP to KRAS-4B:GTP (Homo sapiens, UniProt Q07889)
T1 construct: SOS1 (Cytoskeleton Inc., Cat. CS-GE02); purchased Cytoskeleton Inc. CS-GE02 (SOS1); CSRS03 (KRAS4-B)
T1 sequence (Q07889 564-1049 limits assumed): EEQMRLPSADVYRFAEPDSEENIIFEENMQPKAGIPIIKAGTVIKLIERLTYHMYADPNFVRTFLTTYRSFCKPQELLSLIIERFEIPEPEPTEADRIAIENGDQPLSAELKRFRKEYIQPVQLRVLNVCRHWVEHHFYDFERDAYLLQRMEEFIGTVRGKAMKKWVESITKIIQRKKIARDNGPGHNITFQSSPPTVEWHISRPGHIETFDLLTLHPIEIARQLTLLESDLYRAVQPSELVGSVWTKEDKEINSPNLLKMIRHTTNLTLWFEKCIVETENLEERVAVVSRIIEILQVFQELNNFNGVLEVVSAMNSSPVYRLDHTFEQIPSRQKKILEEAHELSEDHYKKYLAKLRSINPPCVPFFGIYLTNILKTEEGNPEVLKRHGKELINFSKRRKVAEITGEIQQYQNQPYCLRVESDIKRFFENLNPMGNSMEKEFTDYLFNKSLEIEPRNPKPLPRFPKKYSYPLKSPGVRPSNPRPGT
Experiment: Bodipy-FL-GTP Association Assay
Format: biochemical
Conditions: SOS1 GEF activity on KRAS-4B, 22° C.
Procedure: A low IC50 value for a given compound is indicative of high potency of said compound in inhibiting the guanine nucleotide exchange factor (GEF) activity of SOS1 on KRAS-4B in this assay setting. Reagents: BODIPY FL GTP (ThermoFisher Scientific, Cat. G12411); KRAS4-B (Cytoskeleton Inc., Cat. CSRS03); SOS1 (Cytoskeleton Inc., Cat. CS-GE02); 2× Assay Buffer: 40 mM Tris-HCl, pH 7.5; 100 mM NaCl; 20 mM MgCl2; 0.1 mg/mL BSA; 0.02% NP-40 Assay Procedure: Test compounds were dissolved in DMSO to create 20 mM master stocks. The stocks were diluted in a 3× dilution series in 100% DMSO to achieve 100× compound stocks. A 1 μl spot of each test compound stock was delivered to two adjacent wells of a 96-well assay plate prior to running the assay. Reaction Mix preparation: The following were mixed in order at room temperature to obtain the “Reaction Mix” (5.75 mL 2× Exchange Buffer; 3.22 mL MilliQ ddH2O; 3 μL 5 mM BODIPY FL GTP; 230 μL 50 μM KRAS-4B; 9.203 mL Total volume. Reaction initiation: 80 μL of Reaction Mix was pipetted into each well of a half-area black 96-well plate (Corning, Cat. 3686) containing either a 1 μL spot of DMSO or a 1 μL spot test compound at the concentrations listed above. 20 μL of 1 μM SOS1 was then added to each well to initiate the reaction. For the no GEF control wells this was replaced with 1× exchange buffer. Kinetic measurement: The reaction was monitored in a SpectraMax M2 Microplate Reader (Molecular Devices) under the following protocol: 5 second rapid circular mixing before first read; 61 readings, 30 seconds apart; Assay temperature: 22° C.; Excitation wavelength: 485 nm; Emission wavelength: 513 nm. Data Analysis: The V max values for the SOS1-mediated BODIPY FL GTP exchange curves in the presence of test compounds were normalized to the most dilute test sample columns or DMSO only control wells to give the % Activity for each concentration of test compound. Plots of % Activity vs. the Log10 of the compound concentration were fit by non-linear regression to a 4-parameter logistic model.

## CC(=O)N1CC=C(c2cc3c(N[C@H](C)c4cc(N)cc(C(F)(F)F)c4)ncnn3c2)CC1 [Example 13, 1-[4-[4-[[(1R)-1-[3-amino-5-(trifluoromethyl)phenyl]ethyl]amino]pyrrolo[2,1-f][1,2,4]triazin-6-yl]-3,6-dihydro-2H-pyridin-1-yl]ethanone]
  IC50: 1000 to 5000 nM
